Results reported in patent US9745246B2, “Method for preparing a salt of acetylsalicylic acid and a basic amino acid” (UNITHER PHARMACEUTICALS, priority 2014, dated 2017).

Assays:
[1] = Stability study, Experiment 1: dry product stored at 5° C. under inert atmosphere in the dark for 3 months; assay type: physicochemical; settings: storage 5° C.; for Stability over time: 3 months
Protocol: (§1) The analysis by HPLC is carried out according to the method of the European Pharmacopeia 2.2.29, as indicated below.
(§2) Residual moisture content: halogen loss on desiccation in a desiccator 5 g/90° C./20 min.
(§3) Water content: according to European Pharmacopeia 2.5.12, titration carried out by Karl Fisher titration on 1 g of ASL.
(§4) according to European Pharmacopeia 2.2.3, a solution is reconstituted by dissolving 1 g of ASL in 10 ml of water free of carbon dioxide, with stirring for 30 s. Its appearance is evaluated and its pH is measured.
(§5) Content of each unknown impurity: by HPLC assay, according to the operating protocol described above. The content of each impurity is determined by means of the following equation: […]
A study of stability of the product obtained in example 1 is carried out by storing the dry product under an inert atmosphere and in the dark, at a temperature of 5° C., for a period of 3 months.
At times T=0, T=1 month and T=3 months, a sample of product is taken and subjected to all the tests described in example 2.
By way of comparative example, the same experiment is carried out on a product obtained by means of the preparation process of the prior art described in document WO 2011/039432, providing in particular a molar deficiency in DL-lysine (more specifically, with an acetylsalicylic acid/DL lysine molar ratio equal to 1/0.89).

[2] = Stability study, Experiment 2: dry product (new synthesis batch) stored at 5° C. under inert atmosphere in the dark for 6 months; assay type: physicochemical; set-up: key to Appearance of the powder / Appearance of the reconstituted solution: C = complies; settings: storage 5° C.
Protocol: as §1, §2, §3, §4, §5
A study of stability of the product obtained in example 1 (new synthesis batch) is carried out by storing the dry product under an inert atmosphere and in the dark, at a temperature of 5° C., for a period of 6 months.
At times T=0, T=1 month, T=3 months and T=6 months, a sample of product is taken and subjected to all the tests described in example 2.

[3] = time 0 months, listed as Method in accordance with the invention
[4] = time 1 month, listed as Method in accordance with the invention
[5] = time 3 months, listed as Method in accordance with the invention

DL-lysine acetylsalicylate [ASL]
Stability over time ([1]; listed as product obtained by means of the method in accordance with the invention of exam): remains stable over time
Impurities (%): Other unknown impurity ([1]; time 0 months): 0.02%
Impurities (%): Sum of the impurities ([1]; time 0 months): 0.15%
Water content (%) ([1]; time 0 months): 0.4%
HPLC content of acetylsalicylic acid (%) [1, 3]: 98.3%
Impurities (%): Salicylic acid [1, 3]: 0.13%
Residual moisture content (%) [1, 3]: 0.4%
pH of the reconstituted solution [1, 3]: 5.9
Water content (%) ([1]; time 1 month): 0.5%
HPLC content of acetylsalicylic acid (%) [1, 4]: 98.5%
Impurities (%): Other unknown impurity [1, 4]: 0.02%
Impurities (%): Salicylic acid [1, 4]: 0.17%
Impurities (%): Sum of the impurities [1, 4]: 0.22%
Residual moisture content (%) [1, 4]: 0.6%
pH of the reconstituted solution [1, 4]: 5.6
Water content (%) ([1]; time 3 months): 0.3%
HPLC content of acetylsalicylic acid (%) [1, 5]: 98.8%
Impurities (%): Other unknown impurity [1, 5]: 0.02%
Impurities (%): Salicylic acid [1, 5]: 0.21%
Impurities (%): Sum of the impurities [1, 5]: 0.25%
Residual moisture content (%) [1, 5]: 0.6%
pH of the reconstituted solution [1, 5]: 5.5
Stability over time ([2]; 6 months): remains stable over time
Appearance of the powder ([2]; time 0 months): C
Appearance of the reconstituted solution ([2]; time 0 months): C
HPLC content of acetylsalicylic acid (%) ([2]; time 0 months): 97.5%
Impurities (%): Other unknown impurity ([2]; time 0 months): 0.03%
Impurities (%): Salicylic acid ([2]; time 0 months): 0.28%
Impurities (%): Sum of the impurities ([2]; time 0 months): 0.32%
Residual moisture content (%) ([2]; time 0 months): 0.7%
Water content (%) ([2]; time 0 months): 0.4%
pH of the reconstituted solution ([2]; time 0 months): 5.7
Appearance of the powder ([2]; time 1 month): C
Appearance of the reconstituted solution ([2]; time 1 month): C
HPLC content of acetylsalicylic acid (%) ([2]; time 1 month): 97.5%
Impurities (%): Other unknown impurity ([2]; time 1 month): 0.03%
Impurities (%): Salicylic acid ([2]; time 1 month): 0.28%
Impurities (%): Sum of the impurities ([2]; time 1 month): 0.33%
Residual moisture content (%) ([2]; time 1 month): 0.5%
Water content (%) ([2]; time 1 month): 0.3%
pH of the reconstituted solution ([2]; time 1 month): 5.8
Appearance of the powder ([2]; time 3 months): C
Appearance of the reconstituted solution ([2]; time 3 months): C
HPLC content of acetylsalicylic acid (%) ([2]; time 3 months): 98.1%
Impurities (%): Other unknown impurity ([2]; time 3 months): 0.03%
Impurities (%): Salicylic acid ([2]; time 3 months): 0.29%
Impurities (%): Sum of the impurities ([2]; time 3 months): 0.33%
Residual moisture content (%) ([2]; time 3 months): 0.6%
Water content (%) ([2]; time 3 months): 0.3%
pH of the reconstituted solution ([2]; time 3 months): 5.4
Appearance of the powder ([2]; time 6 months): C
Appearance of the reconstituted solution ([2]; time 6 months): C
HPLC content of acetylsalicylic acid (%) ([2]; time 6 months): 97.5%
Impurities (%): Other unknown impurity ([2]; time 6 months): 0.03%
Impurities (%): Salicylic acid ([2]; time 6 months): 0.30%
Impurities (%): Sum of the impurities ([2]; time 6 months): 0.34%
Residual moisture content (%) ([2]; time 6 months): 0.6%
Water content (%) ([2]; time 6 months): 0.3%
pH of the reconstituted solution ([2]; time 6 months): 6.3

DL-lysine acetylsalicylate [Process of WO 2011/039432, reference compound]
Stability over time ([1]; listed as product obtained by means of a process of the prior art): much less stability over time
HPLC content of acetylsalicylic acid (%) ([1]; time 0 months): 93.6%
Impurities (%): Salicylic acid ([1]; time 0 months): 1.9%
Residual moisture content (%) ([1]; time 0 months): 0.72%
pH of the reconstituted solution ([1]; time 0 months): 5.2
HPLC content of acetylsalicylic acid (%) ([1]; time 1 month): 90.0%
Impurities (%): Other unknown impurity ([1]; time 1 month): 0.026%
Impurities (%): Salicylic acid ([1]; time 1 month): 1.9%
Impurities (%): Sum of the impurities ([1]; time 1 month): 0.09%
Residual moisture content (%) ([1]; time 1 month): 0.61%
pH of the reconstituted solution ([1]; time 1 month): 5.2
HPLC content of acetylsalicylic acid (%) ([1]; time 3 months): 91.6%
Impurities (%): Other unknown impurity ([1]; time 3 months): 0.027%
Impurities (%): Salicylic acid ([1]; time 3 months): 2.0%
Impurities (%): Sum of the impurities ([1]; time 3 months): 0.07%
Residual moisture content (%) ([1]; time 3 months): 0.61%
pH of the reconstituted solution ([1]; time 3 months): 5.1
